The results in this text go back to patent US9000032B2, “Substituted cyclopentenes as therapeutic agents” (Allergan, Inc., priority 2013, dated 2015).

Where only a bound is given, the exact number is not on record here.

One experiment addresses T1, hEP2/Gqs5 (Homo sapiens, UniProt P43116).
T1 construct: expressed in transfected cells
Put plainly: FLIPR calcium signal, EP2. The format is cell-based. The settings on record: HEK-293(EBNA) hEP2/Gqs5, read-out: EP2 Ca2+ EC50. Here is the method: (§1) HEK-293(EBNA) cells, stably expressing one type or subtype of recombinant human prostaglandin receptors (prostaglandin receptors expressed: hDP/Gqs5; hEP1, hEP2/Gqs5; hEP3A/Gqi5; hEP4/Gqs5; hFP; hIP; hTP), were cultured in 100 mm culture dishes in high-glucose DMEM medium containing 10% fetal bovine serum, 2 mM I-glutamine, 250 μg/ml geneticin (G418) and 200 μg/ml hygromycin B as selection markers, and 100 units/ml penicillin G, 100 μg/ml streptomycin and 0.25 μg/ml amphotericin B.
(§2) Cells were seeded at a density of 5×10^4 cells per well in Biocoat® Poly-D-lysine-coated black-wall, clear-bottom 96-well plates (Becton-Dickinson) and allowed to attach overnight in an incubator at 37° C. Cells were then washed two times with HBSS-HEPES buffer (Hanks Balanced Salt Solution without bicarbonate and phenol red, 20 mM HEPES, pH 7.4) using a Denley Cellwash plate washer (Labsystems). After 45 minutes of dye-loading in the dark, using the calcium-sensitive dye Fluo-4 AM at a final concentration of 2 μM, plates were washed four times with HBSS-HEPES buffer to remove excess dye leaving 100 μl, in each well. Plates were re-equilibrated to 37° C. for a few minutes.
(§3) Cells were excited with an Argon laser at 488 nm, and emission was measured through a 510-570 nm bandwidth emission filter (FLIPR™, Molecular Devices, Sunnyvale, Calif.). Drug solution was added in a 50 μL volume to each well to give the desired final concentration. The peak increase in fluorescence intensity was recorded for each well. On each plate, four wells each served as negative (HBSS-HEPES buffer) and positive controls (standard agonists: BW245C (hDP); PGE2(hEP1, hEP2/Gqs5; hEP3A/Gqi5; hEP4/Gqs5); PGF2α (hFP); carbacyclin (hIP); U-46619 (hTP), depending on receptor). The peak fluorescence change in each drug-containing well was then expressed relative to the controls.
(§4) Compounds were tested in a high-throughput (HTS) or concentration-response (CoRe) format. In the HTS format, forty-four compounds per plate were examined in duplicates at a concentration of 10^−5 M. To generate concentration-response curves, four compounds per plate were tested in duplicates in a concentration range between 10^−5 and 10^−11. The duplicate values were averaged. In either, HTS or CoRe format each compound was tested on at least 3 separate plates using cells from different passages to give an n≧3.

The next experiment has as its target T2, EP4 receptors (Homo sapiens, UniProt P35408).
T2 construct: expressed in transfected cells; membrane fraction
As to the kind of experiment: Radioligand binding, [3H]PGE2, EP4. The settings on record: [3H]PGE2 competition, HEK-293 cells expressing EP4; read-out: EP4 Ki EC50. As to the method:
(§5) HEK-293 cells stably expressing the human or feline FP receptor, or EP1, EP2, or EP4 receptors were washed with TME buffer, scraped from the bottom of the flasks, and homogenized for 30 sec using a Brinkman PT 10/35 polytron. TME buffer was added to achieve a final 40 ml volume in the centrifuge tubes (the composition of TME is 100 mM TRIS base, 20 mM MgCl2, […]; ION HCl is added to achieve a pH of 7.4).
(§6) The cell homogenate was centrifuged at 19000 rpm for 20 min at 4° C. using a Beckman Ti-60 rotor. The resultant pellet was resuspended in TME buffer to give a final 1 mg/ml protein concentration, as determined by Biorad assay. Radioligand binding competition assays vs. [^3H-]17-phenyl PGF2α (5 nM) were performed in a 100 μl volume for 60 min. Binding reactions were started by adding plasma membrane fraction. The reaction was terminated by the addition of 4 ml ice-cold TRIS-HCl buffer and rapid filtration through glass fiber GF/B filters using a Brandel cell harvester. The filters were washed 3 times with ice-cold buffer and oven dried for one hour.
(§7) [^3H-] PGE2 (specific activity 180 Ci mmol) was used as the radio ligand for EP receptors. [^3H] 17-phenyl PGF2α was employed for FP receptor binding studies. Binding studies employing EP1, EP2, EP4 and FP receptors were performed in duplicate in at least three separate experiments. A 200 μl assay volume was used. Incubations were for 60 min at 25° C. and were terminated by the addition of 4 ml of ice-cold 50 mM TRIS-HCl, followed by rapid filtration through Whatman GF/B filters and three additional 4 ml washes in a cell harvester (Brandel). Competition studies were performed using a final concentration of 5 nM [^3H]-PGE2, or 5 nM [^3H] 17-phenyl PGF2α and non-specific binding determined with 10^−5 M of unlabeled PGE2, or 17-phenyl PGF2α according to receptor subtype studied.

Another experiment has as its target T3, hEP4/Gqs5 (Homo sapiens, UniProt P35408).
T3 construct: expressed in transfected cells
Put plainly: FLIPR calcium signal, EP4. In kind it is cell-based. The settings on record: HEK-293(EBNA) hEP4/Gqs5, read-out: EP4 Ca2+ EC50. Here is the method: as §1, §2, §3
(§8) Compounds were tested in a high-throughput (HTS) or concentration-response (CoRe) format. […]

For the next experiment, the target named is T4, hDP/Gqs5 (Homo sapiens, UniProt Q13258).
T4 construct: expressed in transfected cells
T4 sequence (Q13258 1-359): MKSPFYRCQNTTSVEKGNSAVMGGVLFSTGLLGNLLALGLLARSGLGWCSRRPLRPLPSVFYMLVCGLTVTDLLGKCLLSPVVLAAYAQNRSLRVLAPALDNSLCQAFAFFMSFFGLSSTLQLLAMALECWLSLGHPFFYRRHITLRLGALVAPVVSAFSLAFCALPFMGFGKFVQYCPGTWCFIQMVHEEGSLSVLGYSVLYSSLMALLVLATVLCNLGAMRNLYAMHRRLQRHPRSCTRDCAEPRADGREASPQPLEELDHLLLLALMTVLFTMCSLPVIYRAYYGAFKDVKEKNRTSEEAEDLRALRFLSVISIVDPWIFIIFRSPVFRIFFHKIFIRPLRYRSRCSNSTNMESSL
As to the kind of experiment: FLIPR calcium signal, DP. In kind it is cell-based. The settings on record: NA listed after 'NA:', read-out: OTHER RECEPTORS Ca2+ EC50: DP. As to the method: as §1, §2, §3, §8

A further experiment deals with T5, hEP3A/Gqi5 (Homo sapiens, UniProt P43115).
T5 construct: expressed in transfected cells
T5 sequence (P43115 1-390): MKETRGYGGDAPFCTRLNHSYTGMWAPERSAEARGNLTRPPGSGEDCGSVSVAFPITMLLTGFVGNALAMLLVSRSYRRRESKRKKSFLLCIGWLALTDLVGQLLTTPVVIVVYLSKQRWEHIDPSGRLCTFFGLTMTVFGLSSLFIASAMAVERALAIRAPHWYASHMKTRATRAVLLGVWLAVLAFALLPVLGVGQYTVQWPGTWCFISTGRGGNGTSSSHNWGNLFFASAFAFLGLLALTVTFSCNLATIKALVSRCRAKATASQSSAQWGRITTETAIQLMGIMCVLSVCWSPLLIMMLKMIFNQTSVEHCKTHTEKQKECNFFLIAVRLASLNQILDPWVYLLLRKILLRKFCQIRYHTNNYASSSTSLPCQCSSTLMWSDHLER
As to the kind of experiment: FLIPR calcium signal, EP3. The format is cell-based. The following applies: read-out: OTHER RECEPTORS Ca2+ EC50: EP3. Here is the method:
as §1, §2, §3, §4

The target in experiment [1] is T6, EP2 (Homo sapiens, UniProt P43116). Put plainly: Competition radioligand binding, [3H]PGE2, EP2. Set-up: expressed in transfected cells; membranes or whole cells. The settings on record: [3H]PGE2 competition, HEK 293 cells expressing human EP2. As to the method: Competition binding experiments were performed in a medium containing Hank's balanced salt solution, Hepes 20 mM, pH 7.3, membranes (˜[…] protein) or 2×10^5 cells from HEK 293 cells stably expressing human EP2 receptors, [^3H]PGE2 (10 nM) and various concentrations of test compounds in a total volume of 300 μl. Reaction mixtures were incubated at 23° C. for 60 min, and were filtered over Whatman GF IB filters under vacuum. Filters were washed three times with 5 ml ice-cold buffer containing 50 mM Tris/HCl (PH 7.3). Non-specific binding was estimated in the presence of excess unlabeled PGE2 (10 μM). Binding data fitted to the binding model for a single class of binding sites, using nonlinear regression analysis. IC50 values thus obtained were converted to Ki using the equation of Ki=(IC50/(1+[L]/KD) where [L] represents PGE2 concentration (10 nM) and KD the dissociation constant for [^3H]PGE2 at human EP2 receptors (40 nM).
as §5, §6, §7

The target in experiment [2] is T6, EP2. As to the kind of experiment: cAMP assay, HEK-EBNA cells expressing EP2. In kind it is cell-based. Set-up: expressed in transfected cells; host or cells: HEK-EBNA cells. As to the method: A 384-well drug plate was prepared to contain 6 test compounds, PGE2 and cAMP in 16 serial dilutions in triplicate, using a Biomek station. HEK-EBNA cells expressing a target PG receptor subtype (EP2 or EP4) were suspended in a stimulation buffer (HBSS, 0.1% BSA, 0.5 mM IBMX and 5 mM HEPES, pH 7.4) in a density of 10^4 cells/5 μL. The reaction was initiated by mixing 5 μL drug dilutions with 5 μL of HEK-EBNA cells in a well, carried out for 30 min at room temperature, and followed by the addition of 5 μL anti-cAMP acceptor beads in the control buffer with Tween-20 (25 mM NaCl, 0.03% Tween-20, 5 mM HEPES, pH 7.4). After 30 min in the dark at room temperature, the mixtures were incubated with 15 μL biotinylated-cAMP/strepavidin donor beads in Lysis/Detection buffer (0.1% BSA, 0.3% Tween-20 and 5 mM HEPES, pH 7.4) for 45 min at the room temperature. Fluorescence changes were read using a Fusion-alpha HT microplate reader.

T6 sequence (P43116 whole entry): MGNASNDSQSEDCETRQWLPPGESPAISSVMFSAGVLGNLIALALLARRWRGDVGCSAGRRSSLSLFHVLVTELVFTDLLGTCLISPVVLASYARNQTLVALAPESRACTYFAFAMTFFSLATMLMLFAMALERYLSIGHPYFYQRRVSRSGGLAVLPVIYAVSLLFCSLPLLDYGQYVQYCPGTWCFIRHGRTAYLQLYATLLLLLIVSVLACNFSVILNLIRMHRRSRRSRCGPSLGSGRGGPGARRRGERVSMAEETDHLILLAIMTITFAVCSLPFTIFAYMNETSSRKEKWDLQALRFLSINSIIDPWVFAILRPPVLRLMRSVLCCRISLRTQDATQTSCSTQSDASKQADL
T1 sequence (P43116 whole entry): as above
T2 sequence (P35408 whole entry): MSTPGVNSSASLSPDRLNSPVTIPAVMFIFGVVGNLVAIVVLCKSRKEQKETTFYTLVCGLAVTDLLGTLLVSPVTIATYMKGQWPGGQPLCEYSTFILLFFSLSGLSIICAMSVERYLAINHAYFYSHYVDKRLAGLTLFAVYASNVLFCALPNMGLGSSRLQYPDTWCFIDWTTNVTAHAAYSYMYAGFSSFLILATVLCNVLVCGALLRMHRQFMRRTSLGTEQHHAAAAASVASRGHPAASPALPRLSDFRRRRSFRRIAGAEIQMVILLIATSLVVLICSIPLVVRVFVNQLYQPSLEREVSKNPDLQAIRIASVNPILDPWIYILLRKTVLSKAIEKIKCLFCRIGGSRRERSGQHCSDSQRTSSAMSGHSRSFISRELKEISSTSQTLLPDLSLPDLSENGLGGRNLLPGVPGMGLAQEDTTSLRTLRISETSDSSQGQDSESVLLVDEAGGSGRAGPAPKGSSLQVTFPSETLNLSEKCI
T3 sequence (P35408 whole entry): as above

On to `C#CC1=C(c2ccc(C(O)CCCCC)cc2)[C@@H](CCCc2ccc(C(=O)O)s2)CC1` (single isomer, unassigned) [compound 1], for which the EC50 was 48 nM on hEP2/Gqs5; more than 10000 nM on hEP4/Gqs5; 7730 nM at hDP/Gqs5; 171 nM at hEP3A/Gqi5; 0.2 nM on EP2 [2]. For the same molecule, the Ki at EP4 receptors came to 2820 nM; at EP2 [1], 2 nM.

On to `C#CC1=C(c2ccc(C(O)CCCCC)cc2)[C@@H](CCCc2ccc(C(=O)O)s2)CC1` (single isomer, unassigned) [compound 2], for which the concentration giving a half-maximal response (EC50) is 22 nM at hEP2/Gqs5, more than 10000 nM on hDP/Gqs5 and 1540 nM on hEP3A/Gqi5. Further, the values for the inhibition constant Ki on EP4 receptors and at EP2 [1] were 712 nM and 7 nM, respectively.

Take `CCCCCC(O)c1ccc(C2=C(C#CCO)CC[C@@H]2CCCc2ccc(C(=O)O)s2)cc1` (stereo partly shown) [compound 3]: the EC50 on hEP2/Gqs5 is 0.5 nM; on hEP4/Gqs5, more than 10000 nM; on hDP/Gqs5, 220 nM; on hEP3A/Gqi5, 7400 nM; on EP2 [2], 1.5 nM. Further, the Ki was determined as 783 nM at EP4 receptors and 17 nM on EP2 [1].

As to `CCCCCC(O)c1ccc(C2=C(C#Cc3ccccc3)CC[C@@H]2CCCc2ccc(C(=O)O)s2)cc1` (stereo partly shown) [compound 4], the EC50 on hEP2/Gqs5 is 513 nM; at hEP4/Gqs5 it was more than 10000 nM; at hEP3A/Gqi5 it was 7080 nM; at EP2 [2], 140 nM. Further, the Ki at EP4 receptors was found to be 8190 nM; at EP2 [1], 2530 nM.
